According to PMC7160362, “A Polyamine-Based Dinitro-Naphthalimide Conjugate as Substrates for Polyamine Transporters Preferentially Accumulates in Cancer Cells and Minimizes Side Effects in vitro and in vivo” (Frontiers in Chemistry, 2020):
Like-named read-outs stand apart in the source and are kept apart here.

Tests used:
[1] = system: Snu-739 cells (hepatic carcinoma); experiment: MTT cytotoxicity assay; type: cell-based; details: for IC50: SNU-739, MTT, 48 h
Experimental: (§1) We incubated hepatic carcinoma (Snu-368 and Snu-739), breast carcinoma (MDA-MB-231 and MCF-7), cisplatin-sensitive lung cancer cells A549, and cisplatin-resistant lung cancer cells A549cisR in 96-well plates in a 5% CO2 atmosphere at 37°C for 24 h (5,000 cells/well). After adding drugs in freshly prepared culture medium (100 μl) and incubating for another 48 h, we added 20 μl MTT (5 mg/ml) and incubated for another 3 h. At last, after the medium was removed, 150 μl DMSO was added. By using a Bio-Rad 680 microplate reader, the absorbance was measured at 570 nm and the IC50 values were calculated using the GraphPad Prism software based on three parallel experiments.
(§2) In vitro assays were firstly conducted to evaluate the inhibitory effect of polyamine-based naphthalimide conjugates 5a-5c, 7a-7b, and 11a-11b on six cancer cell lines, namely, Snu-368 and Sun-739 (hepatoma cell line), MCF-7 (breast carcinoma), MDA-MB-231 (triple negative breast cancer), cisplatin-sensitive lung cancer A549, and resistant A549cisR cells by using traditional MTT tests. Two classic antitumor agents in clinic trials, amonafide and cisplatin, were chosen as the reference drugs (Table 1). The preliminary structure–activity relationship (SAR) can be obtained from the in vitro biological results.

[2] = system: cisplatin-resistant lung cancer cells A549cisR; experiment: MTT cytotoxicity assay; type: cell-based; details: for RF (resistance factor): IC50 in A549cisR cells/IC50 in A549 cells; for IC50: MTT, 48 h
Experimental: as §1, §2

[3] = system: cisplatin-sensitive lung cancer cells A549; experiment: MTT cytotoxicity assay; type: cell-based; details: A549; for IC50: Homo sapiens, MTT, 48 h
Experimental: as §1, §2

[4] = system: MCF-7 cells (breast carcinoma); experiment: MTT cytotoxicity assay; type: cell-based; details: for IC50: Homo sapiens, MCF7, MTT, 48 h
Experimental: as §1, §2

[5] = system: MDA-MB-231 cells (triple negative breast cancer); experiment: MTT cytotoxicity assay; type: cell-based; details: MDA-MB-231; for IC50: Homo sapiens, MTT, 48 h
Experimental: as §1, §2

[6] = system: Snu-368 cells (hepatic carcinoma); experiment: MTT cytotoxicity assay; type: cell-based; details: for IC50: MTT, 48 h
Experimental: as §1, §2

[7] = system: HL-7702 (normal liver cell); experiment: MTT cytotoxicity on matched normal cells; type: cell-based; details: for IC50: Homo sapiens
Experimental: as §1
The selectivity for cancer cells over normal healthy cells is important for ideal anticancer agents, thereby mitigating undesired toxic side effects associated with chemotherapy. The selectivity of polyamine-based dinitro-naphthalimide conjugates 5a-5c was evaluated by Snu-368 and Snu-739 (hepatic carcinoma), and the matched normal cells HL-7702 (normal liver cell). Moreover, dinitro-naphthalimide conjugates 5a-5c (SI 1.94–7.47) show lower cytotoxicity in normal cells.

[8] = system: p53 in Snu-739 cells; experiment: Western blot of p53; type: cell-based; details: Snu-739, 24 h
Experimental: We performed western blot analysis to determine the contents of p53 after treatment by 5c for 5, 10, and 15 μM for 24 h. After washing three times with PBS, we harvested and centrifuged the cells, which were lysed with a RIPA buffer (Beyotime, China). The total contents of protein were determined by a BCA assay kit (Beyotime, China). At 100°C for 10 min, the total lysates were denatured in a 5 × SDS-loading buffer. Equal amounts of total proteins were separated by 12% SDS-PAGE. Dried skimmed milk (5%) was used to block the separated protein in Tris Buffered Saline Tween (TBST) at room temperature for 1 h. And then the corresponding primary antibodies and the appropriate HRP-conjugated secondary antibody were used to incubate with the separated protein. By ECL plus reagents (Beyotime, Jiangsu, China), we detected the expression of p53.

[9] = system: six cancer cell lines (Snu-368, Snu-739, MCF-7, MDA-MB-231, A549, A549cisR); experiment: MTT cytotoxicity assay, whole panel; type: cell-based; details: versus amonafide and cisplatin
Experimental: as §1, §2

[10] = system: Put, Spd, and Spm in Snu-368 cells; experiment: Polyamine contents assay (HPLC, dansyl derivatives); type: cell-based; details: Snu-368, 24 h
Excerpt: (§3) According to our previous report (Wang et al., [2012]; Li et al., [2016], [2018]; Dai et al., [2017a]; Ma et al., [2017a],[b], [2018]; Liu et al., [2019]), the contents of Put, Spd, and Spm were detected by a G1321A fluorescence detector in both Snu-368 and Snu-739 cells. Cells were harvested and dansyl chloride was used as the derivation reagent. After converting to the corresponding dansyl derivatives, Put, Spd, and Spm were separated by using High Performance Liquid Chromatogra (HPLC) (Agilent 1260, Agilent Technologies, USA) with a C18 chromatographic column (25 × 4.6 mm, 5 μm). As the internal standard substance, 1,6-diaminohexane was used. The excitation and emission wavelengths were 340 and 515 nm, separately. The mobile phase was methanol–water from 65:35 to 100:0 within 30 min.

[11] = system: Put, Spd, and Spm in Snu-739 cells; experiment: as above; type: cell-based; details: Snu-739, 24 h
Excerpt: as §3

[12] = system: HCC xenografts; experiment: In vivo antitumor assay, HCC xenografts; details: for tumor suppression (inhibition rate, tumor weight): tail vein, once every day for 7 days
Excerpt: Healthy BALB/c mice (Cat. SCXK 2016-0006, Beijing, China) aged 5 weeks were used for the determination of anticancer activity. We obtained BALB/c mice from the Laboratory Animal Center, Academy of Military Medical Science. They were raised in compliance with the Guide for the Care and Use of Laboratory Animals. The weight of healthy BALB/c mice is 18–22 g.
We firstly injected HCC cells with 1 × 10^6 cells per mouse to determine the anticancer activity. After a week, the tumors increased to 80–120 mm^3. The mice were divided into four groups for 5c (3 mg/kg), 5c (5 mg/kg), the positive control amonafide (5 mg/kg), or the negative control physiological saline. We injected 5c or amonafide via the tail vein every day for a total of seven treatments. Body weight was determined every day. And then the mice were sacrificed after 7 days. The tumor tissues were weighed and the inhibition rate [((average tumor weight of negative control group – average tumor weight of the drug treated or positive control group)/average tumor weight of control group) × 100] was calculated. The organ index [(organ weight/body weight) × 100%] was also counted including heart, liver, kidney, lung, and spleen at the last day. Both 5c and amonafide were dissolved in glucose injection. And they were used immediately after preparation.
The highest FI levels in Snu-739 also indicate a significant therapy for HCC. Therefore, HCC animal models were used to test the in vivo antitumor activities. Mice bearing HCC xenografts were treated with 5c (3 mg/kg), 5c (5 mg/kg), the positive control amonafide (5 mg/kg), and normal saline (negative control) once every day for 7 days by tail vein (Figure 3).

[13] = system: polyamine oxidase (PAO) in Snu-739 cells; experiment: PAO assay kit; type: cell-based; details: Snu-739, 10 μM, 24 h
Excerpt: (§4) We measured the total PAO level using a PAO assay kit according to our previous report (Liu et al., [2019]) (Hepeng Biotechnology, Cat. HEPENGBIO156).

[14] = system: polyamine oxidase (PAO) in Snu-368 cells; experiment: PAO assay kit; type: cell-based; details: Snu-368, 10 μM, 24 h
Excerpt: as §4

[15] = system: Snu-739 cells; experiment: Annexin V-FITC/PI staining, flow cytometry; type: cell-based
Experimental: Annexin V-FITC/PI staining was used to detect the apoptosis of Snu-739 cells by FCM (flow cytometry). Firstly, we plated the cells in six-well plates (1 × 10^5 cells/well). 5c 10 μM and amonafide 10 μM were added and incubated for 24 h. And then we harvested the cells and washed three times with PBS. Then the protocol was stained according to our previous report (Wang et al., [2012]; Li et al., [2016], [2018]; Dai et al., [2017a]; Ma et al., [2017a],[b]; Ma et al., [2018]; Liu et al., [2019]) and was performed by FCM (BD Biosciences, San Jose, CA, USA).

## O=C1c2cc([N+](=O)[O-])cc3cc([N+](=O)[O-])cc(c23)C(=O)N1CCCCNCCCNC1CCCCC1 [5a]
[1]
  IC50: 2.16 ± 0.1 µM
[2]
  RF (resistance factor): 1.67
  IC50: 3.62 ± 0.15 µM
[3]
  IC50: 2.17 ± 0.2 µM
[4]
  IC50: 2.3 ± 0.18 µM
[5]
  IC50: 1.19 ± 0.12 µM
[6]
  IC50: 2.94 ± 0.06 µM
[7]
  SI (selectivity index) IC50 in HL-7702/IC50 in Snu-368: 2.14
  SI (selectivity index) IC50 in HL-7702/IC50 in Snu-739: 2.92
[7]; L02, read-out: IC50 HL-7702
  IC50: 6.3 ± 0.23 µM

## O=C1c2cc([N+](=O)[O-])cc3cc([N+](=O)[O-])cc(c23)C(=O)N1CCCCNCCCCNC1CCCCC1 [5b]
[1]
  IC50: 3.89 ± 0.35 µM
[2]
  RF (resistance factor): 1.30
  IC50: 2.27 ± 0.25 µM
[3]
  IC50: 1.75 ± 0.15 µM
[4]
  IC50: 1.25 ± 0.1 µM
[5]
  IC50: 1.07 ± 0.1 µM
[6]
  IC50: 2.72 ± 0.25 µM
[7]
  SI (selectivity index) IC50 in HL-7702/IC50 in Snu-368: 2.78
  SI (selectivity index) IC50 in HL-7702/IC50 in Snu-739: 1.94
[7]; L02, read-out: IC50 HL-7702
  IC50: 7.56 ± 0.43 µM

## O=C1c2cc([N+](=O)[O-])cc3cc([N+](=O)[O-])cc(c23)C(=O)N1CCCCNCCCNC1CC1 [5c]
[1]
  IC50: 0.76 ± 0.05 µM
[1]; Snu-739
  FI (fold increase) IC50(amonafide)/IC50(5c): 17.08
  FI (fold increase) IC50(cisplatin)/IC50(5c): 13.18
[2]; A549cisR
  FI (fold increase) IC50(amonafide)/IC50(5c): 13.23
  FI (fold increase) IC50(cisplatin)/IC50(5c): 48.63
[2]
  RF (resistance factor): 0.43
  IC50: 0.83 ± 0.08 µM
[2]; ratio of RF values
  FI (fold increase) amonafide/5c in RF column: 3.70
[3]
  FI (fold increase) IC50(amonafide)/IC50(5c): 3.59
  FI (fold increase) IC50(cisplatin)/IC50(5c): 5.73
  IC50: 1.92 ± 0.23 µM
[4]
  IC50: 1.35 ± 0.15 µM
[4]; MCF-7
  FI (fold increase) IC50(amonafide)/IC50(5c): 4.36
  FI (fold increase) IC50(cisplatin)/IC50(5c): 7.11
[5]
  IC50: 1.33 ± 0.12 µM
  FI (fold increase) IC50(amonafide)/IC50(5c): 11.20
  FI (fold increase) IC50(cisplatin)/IC50(5c): 12.02
[6]
  IC50: 1.09 ± 0.1 µM
[6]; Snu-368
  FI (fold increase) IC50(amonafide)/IC50(5c): 12.83
  FI (fold increase) IC50(cisplatin)/IC50(5c): 15.02
[8]
  p53 protein expression: upregulated
[7]
  SI (selectivity index) IC50 in HL-7702/IC50 in Snu-368: 5.21
  SI (selectivity index) IC50 in HL-7702/IC50 in Snu-739: 7.47
[7]; HL-7702 versus Snu-368 and Snu-739
  SI (selectivity index), range over Snu-368 and Snu-739: 5.21–7.47
[7]; L02, normal liver cell, read-out: IC50 HL-7702
  IC50: 5.68 ± 0.83 µM
[9]
  FI (fold increase), range over cell lines: 3.59–48.63
[10]
  contents of Put, Spd, and Spm versus control group: downregulated
[11]
  contents of Put, Spd, and Spm versus control group: downregulated
[12]; 3 mg/kg
  tumor suppression (inhibition rate, tumor weight): 57.97%
[12]; 5 mg/kg
  tumor suppression (inhibition rate, tumor weight): 65.90%
[12]; day 7, control group 900 mm^3, dose not stated
  average tumor volume: 480 mm^3
[12]; heart, liver, kidney, lung, spleen, end of experiment
  organ weight indexes / toxicological profile in vivo: no obvious pathological changes
[13]
  relative PAO activity versus control group: 1.5–2 folds
[14]
  relative PAO activity versus control group: 1.5–2 folds
[15]; 10 μM, 24 h
  early apoptotic cells: 35.00%
  late apoptotic cells: 38.50%
[15]; total of early and late
  apoptotic cells: 73.50%

## Nc1cc2c3c(cc(N)cc3c1)C(=O)N(CCCCNCCCNC1CC1)C2=O [7a]
[1]
  IC50: 25.8 ± 2.9 µM
[2]
  IC50: 17.4 ± 1.68 µM
[3]
  IC50: 14 ± 1.39 µM
[4]
  IC50: 8.62 ± 0.85 µM
[5]
  IC50: 26.9 ± 2.65 µM
[6]
  IC50: > 30 µM
